Bounds are passed on as bounds.

As a reminder, the IC50 is the concentration needed to halve the response being measured. By IC90 is commonly meant the concentration at which the effect reaches the 90% level.

The test system of the experiment is Plasmodium berghei. Kind of experiment: Luciferase/luciferin-expressing antifolate-resistant parasites were used to infect a culture of HepG2 cells that were pre-incubated with compounds. Infected hepatocytes emit light due to the luciferase reaction. Assay results are presented as the percent inhibition of light emission compared to control. […]. The format is functional. Particulars: sporozoite; for IC90: read-out: LUCIFERASE INFECTION ASSAY - IC90.

The mark [1] stands for this setting: read-out: LUCIFERASE INFECTION ASSAY - IC50.

Turning to `Cc1ccc(-c2cnn3c(N4CCOCC4)cc(C)nc23)cc1`, the IC90 is > 10.7 µM. The IC50 (PBLUC_HILL_SLOPE 2.15, PBLUC_R_SQUARED 0.469, read-out: LUCIFERASE INFECTION ASSAY - IC50) amounted to 5.44 µM.

Turning to `CCNc1nnc(SC(C)C(=O)Nc2ccc(OC(F)F)cc2)s1` (stereo not given), the IC90 is > 10 µM. Under setting [1], the IC50 is > 10 µM.

Consider `Oc1cccc(-c2cnc3cnc(-c4ccc(CNc5ccccc5)cc4)cn23)c1`, for which the IC90 amounted to 2.92 µM. Besides, for the setting “FFLUC_HILL_SLOPE 1.01, FFLUC_R_SQUARED 0.213, PBLUC_HILL_SLOPE 39.2, PBLUC_R_SQUARED 0.71, read-out: LUCIFERASE INFECTION ASSAY - IC50”, the half-maximal inhibitory concentration (IC50) is 2.76 µM.

With `C=C(C)[C@@H]1CC=C(CN2CCC3(CC2)C(=O)N(CCCc2cccnc2)C(=O)N3CC)CC1`, the IC90 came to 6.89 µM. The IC50 (HEPG2TOX_HILL_SLOPE 0.525, HEPG2TOX_R_SQUARED 0.846, PBLUC_HILL_SLOPE 1.68, PBLUC_R_SQUARED 0.809, read-out: LUCIFERASE INFECTION ASSAY - IC50) was determined as 1.86 µM.

`C=CCNC(=S)N1CCc2sccc2C1c1ccc(OC)cc1` (stereo not given): the IC90 was > 9.58 µM. Moreover, the IC50 (PBLUC_HILL_SLOPE 0.135, PBLUC_R_SQUARED 0.112, read-out: LUCIFERASE INFECTION ASSAY - IC50) was > 9.58 µM.

`COc1cc(Nc2cc3c(cn2)cc(-c2cnn(C)c2)n3Cc2ccccc2)cc(OC)c1OC`: the IC90 is 3.72 µM. Under setting [1], the half-maximal inhibitory concentration (IC50) worked out at 3.03 µM.

As to `Cc1cc(/C=C(\C#N)c2nnc(N3CCOCC3)n2-c2ccccc2)c(C)n1-c1cccc(C(F)(F)F)c1`, the IC90 is > 10 µM. Also, under “HEPG2TOX_HILL_SLOPE 0.204, HEPG2TOX_R_SQUARED 0.0193, PBLUC_HILL_SLOPE 1.7, PBLUC_R_SQUARED 0.432, read-out: LUCIFERASE INFECTION ASSAY - IC50”, the IC50 is > 10 µM.

For `O=C(NCCCn1cnc2ccccc21)c1ccccc1Nc1ccccc1`, the IC90 was > 10 µM. Moreover, the IC50 (PBLUC_HILL_SLOPE 3.77, PBLUC_R_SQUARED 0.592, read-out: LUCIFERASE INFECTION ASSAY - IC50) stood at 7.09 µM.

With `O=C(OCc1cc(=O)oc2cc(O)ccc12)c1c2c(nc3ccccc13)/C(=C/c1ccc([N+](=O)[O-])cc1)CCC2`, the concentration for an effect of 90% (IC90) was > 10 µM. For the same compound, the IC50 (FFLUC_HILL_SLOPE 2.06, FFLUC_R_SQUARED 0.63, PBLUC_HILL_SLOPE 4.67, PBLUC_R_SQUARED 0.673, read-out: LUCIFERASE INFECTION ASSAY - IC50) amounted to 7.7 µM.

With `c1ccc(CCCNc2nnnn2-c2ccccc2)cc1`, the IC90 was > 10 µM. The IC50 (PBLUC_HILL_SLOPE 1.25, PBLUC_R_SQUARED 0.199, read-out: LUCIFERASE INFECTION ASSAY - IC50) was 6.08 µM.

On to `CCOc1cccc(-c2cn3c(-c4cccc(CO)c4)cnc3cn2)c1`, for which the IC90 was > 9.55 µM. In addition, the IC50 (PBLUC_HILL_SLOPE 11.7, PBLUC_R_SQUARED 0.129, read-out: LUCIFERASE INFECTION ASSAY - IC50) was 8.63 µM.

Regarding `CC(C)(C)c1ccc(-c2nnc(SCC(=O)Nc3sccc3C(N)=O)n2C2CCCC2)cc1`, the IC90 is > 10 µM. The IC50 (HEPG2TOX_HILL_SLOPE 7.51, 0.572, HEPG2TOX_R_SQUARED 0.693, 0.490, PBLUC_HILL_SLOPE 1.93, PBLUC_R_SQUARED 0.568, read-out: LUCIFERASE INFECTION ASSAY - IC50) is 4.92 µM.

For `CC(=O)Nc1cccc(-n2nnnc2Sc2ccc([N+](=O)[O-])cc2C#N)c1`, the IC90 worked out at 9.5 µM. Also, under “PBLUC_HILL_SLOPE 17.4, PBLUC_R_SQUARED 0.386, read-out: LUCIFERASE INFECTION ASSAY - IC50”, the IC50 came to 8.38 µM.

With `CN(C)C(=O)Oc1ccc(Br)cc1C(=O)Nc1ccc(F)c(Cl)c1`, the IC90 was > 7.94 µM. The IC50 under setting [1] was > 7.94 µM.

`COc1cc(/C=C/C(=O)Nc2ccc3c(c2)nc2n3CCCCC2)ccc1OS(=O)(=O)c1ccc(C)cc1`: the IC90 turned out to be 8.3 µM. The IC50 (HEPG2TOX_HILL_SLOPE 1.59, HEPG2TOX_R_SQUARED 0.591, PBLUC_HILL_SLOPE 1.96, PBLUC_R_SQUARED 0.277, read-out: LUCIFERASE INFECTION ASSAY - IC50) came to 2.71 µM.

As for `Cc1[nH]c2ccccc2c1CC(=O)N1CCc2c(c(C(=O)NCc3cccnc3)nn2CC(C)C)C1`, the IC90 stood at 6.57 µM. The IC50 (PBLUC_HILL_SLOPE 12.1, PBLUC_R_SQUARED 0.505, read-out: LUCIFERASE INFECTION ASSAY - IC50) came to 5.48 µM.

With `CN1C(=O)/C(=C\c2ccccc2[N+](=O)[O-])c2ccccc21`, the IC90 is > 10 µM. For the same compound, the IC50 under setting [1] is 9.31 µM.

As to `Cc1ccc(S(=O)(=O)Oc2cc(C)ccc2C)cc1`, the IC90 was > 11.9 µM. Also, the IC50 (PBLUC_HILL_SLOPE 0.836, PBLUC_R_SQUARED 0.347, read-out: LUCIFERASE INFECTION ASSAY - IC50) came to 4.27 µM.

For the compound `CC(C)(C)c1cc(C(=O)Nc2cc(-c3cccs3)nn2-c2ccc(I)cc2)n(Cc2ccccc2)n1`, the IC90 was > 5.43 µM. For the same compound, the IC50 (PBLUC_HILL_SLOPE 1.99, PBLUC_R_SQUARED 0.0392, read-out: LUCIFERASE INFECTION ASSAY - IC50) is 4.11 µM.

Take `O=C(c1cccc(-c2cccnc2)c1)c1cnc(Nc2ccccc2)[nH]1`: the IC90 is 9.25 µM. Further, the IC50 (HEPG2TOX_HILL_SLOPE 16.4, HEPG2TOX_R_SQUARED 0.215, PBLUC_HILL_SLOPE 5.04, PBLUC_R_SQUARED 0.615, read-out: LUCIFERASE INFECTION ASSAY - IC50) was 5.98 µM.

In the case of `COc1ccc(-c2nc3ccc(NC(=O)Nc4ccc(F)c(Cl)c4)cn3n2)cc1`, the IC90 stood at 8.19 µM. For the same compound, where the note is “PBLUC_HILL_SLOPE 3.84, PBLUC_R_SQUARED 0.577, read-out: LUCIFERASE INFECTION ASSAY - IC50”, the IC50 was determined as 4.62 µM.

As to `Cc1ccc(-n2c(SCC(=O)c3ccc4c(c3)OCO4)nnc2N2CCCC2)cc1`, the IC90 was > 10 µM. For the same compound, under setting [1], the concentration for half-maximal inhibition (IC50) was > 10 µM.

Take `N#C/C(=N\Nc1cc(C(F)(F)F)cc(C(F)(F)F)c1)S(=O)(=O)c1ccc(Cl)cc1`: the IC90 was found to be 1.73 µM. Further, the IC50 (FFLUC_HILL_SLOPE 2.02, FFLUC_R_SQUARED 0.178, HEPG2TOX_HILL_SLOPE 2.35, HEPG2TOX_R_SQUARED 0.941, PBLUC_HILL_SLOPE 1.74, PBLUC_R_SQUARED 0.757, read-out: LUCIFERASE INFECTION ASSAY - IC50) was 0.488 µM.

As for `CCc1ccc(/C=C/c2ccc3cccc(O)c3n2)cc1`, the IC90 amounted to 0.313 µM. The IC50 (FFLUC_HILL_SLOPE 27.9, FFLUC_R_SQUARED 0.597, HEPG2TOX_HILL_SLOPE 1.09, HEPG2TOX_R_SQUARED 0.82, PBLUC_HILL_SLOPE 3.2, PBLUC_R_SQUARED 0.533, read-out: LUCIFERASE INFECTION ASSAY - IC50) stood at 0.157 µM.

For `COc1cccc(-c2nc3ccc(NC(=O)Nc4ccc(Cl)c(C(F)(F)F)c4)cn3n2)c1`, the IC90 amounted to 9.24 µM. Also, the IC50 (FFLUC_HILL_SLOPE 14.4, FFLUC_R_SQUARED 0.104, PBLUC_HILL_SLOPE 6.95, PBLUC_R_SQUARED 0.291, read-out: LUCIFERASE INFECTION ASSAY - IC50) was determined as 6.74 µM.

For the compound `O=C(Nc1ccc(Oc2ccccc2)cc1)c1csc(C(O)c2cccc(Cl)c2)n1` (stereo not given), the IC90 stood at 5.62 µM. The IC50 (HEPG2TOX_HILL_SLOPE 2.05, HEPG2TOX_R_SQUARED 0.879, PBLUC_HILL_SLOPE 3.47, PBLUC_R_SQUARED 0.401, read-out: LUCIFERASE INFECTION ASSAY - IC50) was 2.99 µM.

For the compound `COc1ccc(Cl)cc1C(=O)NCCC(c1ccccc1)c1ccccc1`, the 90% effect concentration (IC90) was > 8.69 µM. Also, the IC50 (HEPG2TOX_HILL_SLOPE 6.56, HEPG2TOX_R_SQUARED 0.368, PBLUC_HILL_SLOPE 3.72, PBLUC_R_SQUARED 0.314, read-out: LUCIFERASE INFECTION ASSAY - IC50) was found to be 5.39 µM.

With `CN(C)CCCN1C(=O)N(CCc2ccccc2)C2(CCN(Cc3cn(C)c4ccccc34)CC2)C1=O`, the IC90 turned out to be 6.2 µM. Besides, the IC50 (HEPG2TOX_HILL_SLOPE 17.2, HEPG2TOX_R_SQUARED 0.602, PBLUC_HILL_SLOPE 5.41, PBLUC_R_SQUARED 0.643, read-out: LUCIFERASE INFECTION ASSAY - IC50) came to 4.13 µM.

For the compound `CCCCN(C)S(=O)(=O)c1ccc(NC(=O)c2cccc(C(F)(F)F)c2)cc1`, the IC90 was > 10 µM. The IC50 (PBLUC_HILL_SLOPE 3.75, PBLUC_R_SQUARED 0.618, read-out: LUCIFERASE INFECTION ASSAY - IC50) came out at 5.87 µM.

Take `CC(=O)N1CCc2cc(NC(=O)Cn3c(COc4ccc5ccccc5c4)nc4ccccc43)ccc21`: the IC90 is > 10 µM. Further, the concentration for half-maximal inhibition (IC50) under setting [1] was > 10 µM.

With `FC(F)(F)c1c(-c2ccccc2)c2cc(Cl)ccc2n1Cc1ccccc1`, the IC90 was > 8.55 µM. Besides, the IC50 (PBLUC_HILL_SLOPE 1.92, PBLUC_R_SQUARED 0.0693, read-out: LUCIFERASE INFECTION ASSAY - IC50) was determined as 7.21 µM.

Take `Cc1ccc(Cn2ccs/c2=N/C(=O)c2cc3c(s2)CCCCC3)cc1`: the IC90 was found to be 0.491 µM. For the same compound, the IC50 (PBLUC_HILL_SLOPE 1.2, PBLUC_R_SQUARED 0.823, read-out: LUCIFERASE INFECTION ASSAY - IC50) stood at 0.0784 µM.

As for `FC(F)(F)c1ccc(C2c3ccsc3CCN2C(=S)Nc2ccc(Cl)cc2Cl)cc1` (stereo not given), the concentration for an effect of 90% (IC90) was > 6.77 µM. For the same compound, the IC50 under setting [1] was determined as 4.24 µM.

Take `CC(=O)NCCc1ccc(C(=O)Cn2cnc3ccc(Cl)cc3c2=O)s1`: the 90% effect concentration (IC90) was > 10 µM. Further, the IC50 under setting [1] was > 10 µM.

With `CN(C)c1ccc(C(=O)Oc2ccc(-c3nnco3)cc2)cn1`, the IC90 was > 10 µM. Also, the IC50 under setting [1] was > 10 µM.

For the origin of these results see ChEMBL document CHEMBL4483862, “Open-source discovery of chemical leads for next-generation chemoprotective antimalarials” (2018).
